Experimental data as given in ChEMBL document CHEMBL4406910, “Scaffold Morphing Identifies 3-Pyridyl Azetidine Ureas as Inhibitors of Nicotinamide Phosphoribosyltransferase (NAMPT)” (ACS Med Chem Lett, 2019).
Converted amounts (≈) assume the structure as drawn.

Assays:
[1] = Solubility of compound in pH 6.8 PBS incubated for 16 to 24 hrs under shaking condition by LC-MS/MS analysis; assay type: physicochemical
[2] = Cmax in athymic nude mouse at 10 mg/kg, po measured for 0.5 to 24 hrs by LC-MS/MS analysis; assay type: ADME, organism-based; design: dose 10 mg/kg, route oral; details: in vivo
[3] = AUC (0 to 7 hrs) in athymic nude mouse at 10 mg/kg, po measured for 0.5 to 24 hrs by LC-MS/MS analysis; assay type: ADME, organism-based; design: time < 7 hr, dose 10 mg/kg, route oral; details: in vivo

Structure (SMILES) | solubility thermodynamic [1] | Cmax [2] | AUC(0-t) at 7 h [3]
C[C@H](NC(=O)[C@@H]1CCCN1C)c1ccc(NC(=O)N2CC(c3cncc(N)c3)C2)cc1 | 820 µM (≈ 346 µg/mL) |  | 
C[C@H](NC(=O)C1CCOCC1)c1ccc(NC(=O)N2CC(c3ccc(N)nc3)C2)cc1 | 310 µM (≈ 131 µg/mL) |  | 
C[C@H](NC(=O)[C@@H]1CCCN1C)c1ccc(NC(=O)N2CC(c3ccc(N)nc3)C2)cc1 | 760 µM (≈ 321 µg/mL) |  | 
C[C@H](NC(=O)C1CCOCC1)c1ccc(NC(=O)N2CC(c3cncc(N)c3)C2)cc1 | 440 µM (≈ 186 µg/mL) |  | 
CCC(=O)N[C@@H](C)c1ccc(NC(=O)N2CC(c3cncc(N)c3)C2)cc1 | 230 µM (≈ 84.5 µg/mL) |  | 
C[C@H](NC(=O)c1ncccn1)c1ccc(NC(=O)N2CC(c3cncc(N)c3)C2)cc1 | 300 µM (≈ 125 µg/mL) |  | 
C[C@H](NC(=O)c1cccc(F)c1)c1ccc(NC(=O)N2CC(c3ccc(N)nc3)C2)cc1 | 32 µM (≈ 13.9 µg/mL) |  | 
CCC(=O)N[C@@H](C)c1ccc(NC(=O)N2CC(c3ccc(N)nc3)C2)cc1 | 760 µM (≈ 279 µg/mL) |  | 
C[C@H](NC(=O)c1ncccn1)c1ccc(NC(=O)N2CC(c3ccc(N)nc3)C2)cc1 | 300 µM (≈ 125 µg/mL) |  | 

The remaining lines, values ahead:

solubility thermodynamic [1] | Cmax [2] | AUC(0-t) at 7 h [3] | Structure (SMILES)
17 µM (≈ 7.37 µg/mL) |  |  | C[C@H](NC(=O)c1cccc(F)c1)c1ccc(NC(=O)N2CC(c3cncc(N)c3)C2)cc1
11 µM (≈ 4.6 µg/mL) |  |  | C[C@H](NC(=O)c1cccc(F)c1)c1ccc(NC(=O)N2CC(c3cccnc3)C2)cc1
 | 29.1 µM | 67.4 µM·h | CCOc1nc2ccccc2n1Cc1ccc(NC(=O)N2CC(c3cccnc3)C2)cc1
700 µM (≈ 247 µg/mL) |  |  | CCC(=O)N[C@@H](C)c1ccc(NC(=O)N2CC(c3cccnc3)C2)cc1
> 1000 µM |  |  | C[C@H](NC(=O)[C@@H]1CCCN1C)c1ccc(NC(=O)N2CC(c3cccnc3)C2)cc1
35 µM (≈ 15 µg/mL) |  |  | C[C@@H](c1ccc(NC(=O)N2CC(c3cncc(N)c3)C2)cc1)N1Cc2ccccc2C1=O
130 µM (≈ 53.6 µg/mL) |  |  | C[C@@H](c1ccc(NC(=O)N2CC(c3cccnc3)C2)cc1)N1Cc2ccccc2C1=O
930 µM (≈ 374 µg/mL) |  |  | C[C@H](NC(=O)c1ncccn1)c1ccc(NC(=O)N2CC(c3cccnc3)C2)cc1
220 µM (≈ 94.1 µg/mL) |  |  | C[C@@H](c1ccc(NC(=O)N2CC(c3ccc(N)nc3)C2)cc1)N1Cc2ccccc2C1=O
380 µM (≈ 155 µg/mL) |  |  | C[C@H](NC(=O)C1CCOCC1)c1ccc(NC(=O)N2CC(c3cccnc3)C2)cc1
